Experiments:
Format in all cases: in vivo, male Sprague-Dawley rats
[1] = Tissue distribution of 14C radioactivity after 14C-aspirin; conditions: for Tissue with the highest 14C concentration: 14C-ASA alone or with SAM, low dose
Protocol: Male adult Sprague-Dawley rats (300-325 gm) obtained from Charles River Breeding Laboratory, N. Wilmington, Mass. were quarantined for one week. All animals were identified by ear punching. Food and water were provided ad libitum. The animals were maintained on rodent lab chow diet in a controlled environment with 50% humidity and 12 hour light/dark cycle.
(§1) Forty-eight rats were divided into two groups. The first group of rats was administered ASA, SAM or their combination in a dose approximately equal (w/w) to that in the commercially available combinations, e.g., BC® formula, when administered to humans, i.e., 10 and 3 mg/kg of ASA and SAM, respectively. The second group was administered double the dosage received by the first group.
Each group consisted of 24 rats and was further divided into 4 subgroups, 6 rats each, according to the following scheme:
The rats were fasted overnight. The drug(s) were prepared fresh, dissolved in 2.5 ml of deionized water and administered orally by gavage needle. The rats were allowed water ad libitum before and after the oral administration.
The different treatments were given according to the previous scheme and each rat received an amount of radioactivity equal to […] in the case of radioactive aspirin and 10 μCu in the case of radioactive salicylamide.
(§2) The rats were anesthetized by light diethyl ether inhalation. A blood sample of nearly 3 ml was collected by cardiac puncture 1.5 hours after oral administration. The blood was transferred to chilled polyethylene tubes containing 30 μl of 50% (w/w) potassium fluoride to prevent hydrolysis of ASA. A 300 μl aliquot was pipetted in a scintillation vial to study the distribution in whole blood. The rest of the collected blood was immediately centrifuged at 1800×g for 10 minutes at 4° C. and the plasma was decanted. 100 μl of the plasma were pipetted in a scintillation vial for measurement of the total radioactivity and the rest of the plasma was stored immediately at -70° C. for later study of the distribution of the metabolites.
300 μl of the pellet of red blood cells was pipetted in a scintillation vial to study the distribution in red blood cells. The rest of the red blood cells were washed twice by adding 2 ml of physiological saline and were resuspended after each addition.
After collecting the blood sample, the rats were sacrificed immediately by a diethyl ether overdose. The following tissues were collected: liver, lung, kidney, heart, spleen, perinephric fat, brain, upper small intestine, stomach, pancreas, bone (femur and tibia), testis, skin and skeletal muscle. A sample of bone marrow was also collected (approximately20 mg).
300 mg tissue samples were placed in scintillation vials and 300 μl of 70% perchloric acid and 600 μl of 30% hydrogen peroxide were added to each vial and also to the vials containing the washed red blood cells aliquots. The vials were incubated at 75° C. for 1 hour in a shaking water bath and were tightly capped to prevent any loss of radioactivity by evaporation.
The vials were left to cool to room temperature for 15 minutes before 10 ml Aquasol-2 scintillation fluid was added to each vial. The total radioactivity was counted in a Beckman model 7500 LS spectrophotometer.

[2] = Tightly protein-bound 14C radioactivity after 14C-aspirin
Protocol: as §1, §2
The plasma tightly protein-bound activity was measured by adding 100 μl of 10% trichloroacetic acid (TCA) to 100 μl of plasma in microcentrifuge tubes and vortexing the contents for 1 minute followed by centrifugation at 1800×g for 10 minutes. The supernatant was decanted and the tubes with the pellets in them were placed in scintillation vials each containing 15 ml of Aquasol-2 scintillation fluid. […] The radioactivity in the scintillation vials was counted in Beckman LS counter.

vascular cyclooxygenase = test: 6-keto PG F1alpha production from thoracic aortic rings ex vivo; conditions: for Inhibition of PG I2 (6-keto PG F1alpha) / vascular cyclooxygenase: ASA 10 mg/kg or SAM 9 mg/kg, rat thoracic aortic rings ex vivo
Protocol: The method used was a modification of that used by Dejana et al. (1981). Male Sprague-Dawley rats were randomly treated with either ASA (10 mg/kg), SAM (9 mg/kg), ASA/SAM (10/9 mg/kg), or isotonic saline. The rats were fasted overnight before administration of the treatments. Half an hour following treatment, the rats were exsanguinated by heart puncture under ether anesthesia and the thoracic aorta was immediately isolated, cleaned of adventitia, and flushed in situ with 5 ml of isotonic saline. The vessel was then removed and 2 rings (each was nearly 7 mg wet weight corresponding to 0.5 cm length) were cut from the middle part. The rings were immediately incubated in 160 μl of Krebs-Hanseleit buffer solution adjusted to pH 7.4 and containing AA (final concentration 4.3 mM) in polyethylene tubes. The tubes were incubated at 37° C. in a shaking water bath for 10 minutes. The reaction was terminated by the addition of 40 μl of EDTA/ASA solution and the tubes were centrifuged at 1800× g for 15 minutes at 4° C. 100 μl of the supernatant were used for the measurement of 6-keto PG F1alpha content as an indicator of its unstable precursor, PG I2. A specific radioimmunoassay (Amersham International) (vide infra) was employed.
Radioimmunoassay Procedure for Measurement of Thromboxane B2 and 6-keto PG F1alpha
The procedure described below is for thromboxane A2. A similar procedure was used for 6-keto PG F1alpha measurement.
One way ANOVA followed by Scheffe multiple range test was employed for treatment comparisons. The accepted level of significance was p<0.05.

[3] = 1.5 hr, 14C-ASA 10 mg/kg, alone or with SAM 3 mg/kg
[4] = 1.5 hr, 14C-ASA 20 mg/kg, alone or with SAM 6 mg/kg
[5] = 1.5 hr, oral 14C-ASA 10 mg/kg, alone or with SAM 3 mg/kg
[6] = 1.5 hr, oral 14C-ASA 20 mg/kg, alone or with SAM 6 mg/kg

## CC(=O)Oc1ccccc1[14C](=O)O [^14 C-ASA]
[1]; [3]
  14C radioactivity in RBCs: 4.2 ± 1.2 μg/gm tissue
  14C radioactivity in blood: 17.1 ± 3.1 μg/gm tissue
  14C radioactivity in bone: 2.7 ± 0.08 μg/gm tissue
  14C radioactivity in bone marrow: 0.24 ± 0.05 μg/50 mg of bone marrow
  14C radioactivity in brain: 1.5 ± 0.1 μg/gm tissue
  14C radioactivity in fat: 3.3 ± 0.1 μg/gm tissue
  14C radioactivity in heart: 5.6 ± 0.5 μg/gm tissue
  14C radioactivity in kidney: 15.1 ± 0.9 μg/gm tissue
  14C radioactivity in liver: 7.9 ± 0.9 μg/gm tissue
  14C radioactivity in lung: 7.3 ± 0.5 μg/gm tissue
  14C radioactivity in muscle: 3.5 ± 0.2 μg/gm tissue
  14C radioactivity in pancreas: 5.7 ± 0.4 μg/gm tissue
  14C radioactivity in plasma: 35.5 ± 1.7 μg/gm tissue
  14C radioactivity in skin: 8.9 ± 0.4 μg/gm tissue
  14C radioactivity in spleen: 2.9 ± 0.6 μg/gm tissue
  14C radioactivity in stomach: 18.9 ± 3.3 μg/gm tissue
  14C radioactivity in testis: 5.1 ± 0.5 μg/gm tissue
  14C radioactivity in upper small intestine: 5.8 ± 0.6 μg/gm tissue
  14C radioactivity in washed RBCs: 1.5 ± 0.5 μg/gm tissue
[1]; [4]
  14C radioactivity in RBCs: 8.8 ± 1.2 μgm/gm tissue
  14C radioactivity in blood: 36.1 ± 3.5 μgm/gm tissue
  14C radioactivity in bone: 7.1 ± 0.6 μgm/gm tissue
  14C radioactivity in bone marrow: 0.79 ± 0.03 μgm/50 mg bone marrow
  14C radioactivity in brain: 4.1 ± 0.07 μgm/gm tissue
  14C radioactivity in fat: 4.5 ± 0.3 μgm/gm tissue
  14C radioactivity in heart: 17.5 ± 0.5 μgm/gm tissue
  14C radioactivity in kidney: 32.0 ± 3.2 μgm/gm tissue
  14C radioactivity in liver: 19.7 ± 0.9 μgm/gm tissue
  14C radioactivity in lung: 19.3 ± 0.7 μgm/gm tissue
  14C radioactivity in muscle: 9.5 ± 0.4 μgm/gm tissue
  14C radioactivity in pancreas: 12.6 ± 0.5 μgm/gm tissue
  14C radioactivity in plasma: 65.1 ± 1.91 μgm/gm tissue
  14C radioactivity in skin: 21.9 ± 0.6 μgm/gm tissue
  14C radioactivity in spleen: 10.0 ± 0.9 μgm/gm tissue
  14C radioactivity in stomach: 22.9 ± 4.6 μgm/gm tissue
  14C radioactivity in testis: 14.1 ± 0.6 μgm/gm tissue
  14C radioactivity in upper small intestine: 15.1 ± 1.0 μgm/gm tissue
  14C radioactivity in washed RBCs: 3.8 ± 0.9 μgm/gm tissue
[1]; 1.5 hr
  Tissue with the highest 14C concentration: plasma attained the highest concentration
[2]; [5]
  Tightly protein-bound 14C in heart: 2.30 ± 0.28 μg ^14 C/gm tissue
  Tightly protein-bound 14C in kidney: 3.85 ± 0.30 μg ^14 C/gm tissue
  Tightly protein-bound 14C in liver: 3.93 ± 0.04 μg ^14 C/gm tissue
  Tightly protein-bound 14C in lung: 1.62 ± 0.14 μg ^14 C/gm tissue
  Tightly protein-bound 14C in plasma: 26.95 ± 2.67 μg ^14 C/ml plasma
[2]; [6]
  Tightly protein-bound 14C in heart: 5.79 ± 0.40 μg ^14 C/gm tissue
  Tightly protein-bound 14C in kidney: 11.66 ± 0.29 μg ^14 C/gm tissue
  Tightly protein-bound 14C in liver: 9.81 ± 0.12 μg ^14 C/gm tissue
  Tightly protein-bound 14C in lung: 5.84 ± 0.40 μg ^14 C/gm tissue

## NC(=O)c1ccccc1O [SAM, Salicylamide]
[1]; 14C-ASA 20 mg/kg with SAM 6 mg/kg vs 14C-ASA alone
  Change of 14C distribution in plasma, skin, testis and brain: significant increase
[1]; 1.5 hr
  Tissue with the highest 14C concentration: plasma attained the highest concentration
[1]; 1.5 hr, 14C-ASA/SAM 10/3 mg/kg vs 14C-ASA 10 mg/kg
  Change of 14C activity in stomach (gastric mucosa): lower concentration of ^14 C radioactivity
[1]; SAM with 14C-ASA
  Change of 14C radioactivity and 14C-SA in plasma, liver and lung: discernable and parallel increase
Vascular cyclooxygenase
  Inhibition of PG I2 (6-keto PG F1alpha) / vascular cyclooxygenase: partially, but still significantly, block vascular cyclooxygenase activity
Vascular cyclooxygenase; SAM with ASA, ex vivo
  Potentiation of ASA inhibitory effect on vascular cyclooxygenase: significant potentiation
[2]; 14C-ASA with SAM 20/6 mg/kg
  Change of tightly protein-bound 14C, high dose: did not reach significant levels
[2]; low and high doses
  Change of tightly protein-bound 14C in kidney: not influenced

## CC(=O)Oc1ccccc1C(=O)O [ASA, acetylsalicylic acid]
Vascular cyclooxygenase
  Inhibition of PG I2 (6-keto PG F1alpha) / vascular cyclooxygenase: inhibited PG I2

Source: US5389621A, “Method of enhancing the anticoagulant effects of aspirin using salicylamide” (University of Medicine and Dentistry of New Jersey, priority 1994, dated 1995)
